Measured values taken from publication PMC8667925, “New 1,2,4-oxadiazole derivatives with positive mGlu4 receptor modulation activity and antipsychotic-like properties” (Journal of Enzyme Inhibition and Medicinal Chemistry, 2021).
Read-outs that look alike come from different tables or passages of the source.

Experiments:
CYP2C19 = biological target: T1, CYP2C19 (Homo sapiens, UniProt P33261); assay: inhibition of cytochrome P450 isoform activity (fluorescence screening); assay type: biochemical; conditions: screening at 1.1, 3.3 and 10 µM
T1 construct: purchased Corning
Procedure: (§1) The assays for cytochrome P450 inhibition facilitate the identification of drug candidates with a lower potential for drug-drug interactions. In vitro experiments conducted to determine whether a drug inhibits a specific CYP enzyme involve an incubation of the drug with probe substrates for the CYP enzymes.
(§2) Recombinant cytochrome P450 isoforms available for the assay: CYP1A2, CYP2B6, CYP2C9, CYP2C19, CYP2D6 and CYP3A4 isoform with various probe substrates enabling fluorescence detection.
(§3) The examined compound was prepared as a 10 mM stock solution in DMSO. The following three concentrations of the test compound were used for screening determination: 1.1, 3.3 and 10 μM. […] Plates filled with solution of cofactors (NADP, G6P, MgCl2, G6PDH) as well as examined compound were scanned with a fluorescence plate reader in order to eliminate false results originating from autofluorescence of the test compounds. […] At the end of the incubation, the reaction was stopped and the fluorescence of the product was determined continuously with the specific for every product excitation as well as emission values with the use of multiwell plate scanner equipped with fluorescence measurement (Fluorescence EnSpire Multimode Plate Reader).

CYP2C9 = biological target: T2, CYP2C9 (Homo sapiens, UniProt P11712); assay: as above; assay type: biochemical; conditions: screening at 1.1, 3.3 and 10 µM
T2 construct: purchased Corning
Procedure: as §1, §2, §3

[1] = pharmacokinetic study, plasma and brain, after i.p. administration; assay type: in vivo, mice (male Albino Swiss); conditions: mouse, 10 mg/kg i.p.; for AUC / Cmax / half-life / Tmax: male, Albino Swiss, ip; for AUC: read-out: AUC (area under the curve); for Cmax: read-out: Cmax (maximum concentration); for half-life: read-out: T1/2 (terminal elimination half-life) (converted)
Procedure: The pharmacokinetic properties and brain uptake of 52 were further determined in mice after i.p. administration. The compound was administered at a dose of 10 mg/kg in 3% DMSO + 20% Captisol in water. The concentration of 52 was monitored in the plasma and the brain at six time points over 6 h (Figure 5).
The method described below was successfully applied to a pharmacokinetic study of 52 in mice (male Albino Swiss) after i.p. injection. Compound 52 was administered to mice at a dose of 10 mg/kg i.p. At 0.25, 0.50, 1.0, 2.0, 4.0, and 6.0 h (three animals were used for one time point) the mice were anaesthetised by the use of Morbital (Biowet, Puławy, Poland), and the blood was collected from the portal vein to tubes containing 5% EDTA. The mice were then perfused with 0.1 M PBS to remove remaining blood from the body, and the brains were taken out for the analysis. Blood was centrifuged at 2000 rpm for 10 min at 4 °C, and the plasma was collected and frozen at −80 °C for further analysis. Plasma and tissue samples from all drug-treated animals were thawed at room temperature prior to use. Standard protocol of sample preparation: 200 µL of acetonitrile was added to the Eppendorf tubes with 50 µL of studied plasma samples or tissue homogenate. Samples were mixed for 5 min on a mixer at 25 °C and 1400 rpm. Tubes were then centrifuged at 2000 × g for 15 min at 4 °C. A total of 180 µL of each supernatant was transferred to a plate well. Finally, each sample was injected onto the LC-MS column. Calibration curve serial dilution method: Plasma was spiked with a standard at different concentrations. Acetonitrile was added. After mixing and centrifugation, the supernatant was collected.
Plasma and tissue samples from all drug-treated animals at selected time points were analysed using a previously developed non-validated LC-MS/MS method. […] LC-MS analysis was carried out on a Bruker amaZon SL mass spectrometer using positive/negative ion ESI mode. Chromatographic separation was achieved on an Ascentis Express C18 column (5 cm × 2.1 mm, […], Supelco Technologies) at room temperature with a thermostatted column oven. A gradient elution of eluents A (acetonitrile (LiChrosolv, Reag. Ph Eur) + 0.1% formic acid (Sigma Aldrich, 98–100%)) and B (water +0.1% formic acid) was used for separation. The flow rate was set at 1 ml/min. The injection volume was 20 µL, and the time of injection was 4 min.

T1 sequence (P33261 whole entry, canonical isoform): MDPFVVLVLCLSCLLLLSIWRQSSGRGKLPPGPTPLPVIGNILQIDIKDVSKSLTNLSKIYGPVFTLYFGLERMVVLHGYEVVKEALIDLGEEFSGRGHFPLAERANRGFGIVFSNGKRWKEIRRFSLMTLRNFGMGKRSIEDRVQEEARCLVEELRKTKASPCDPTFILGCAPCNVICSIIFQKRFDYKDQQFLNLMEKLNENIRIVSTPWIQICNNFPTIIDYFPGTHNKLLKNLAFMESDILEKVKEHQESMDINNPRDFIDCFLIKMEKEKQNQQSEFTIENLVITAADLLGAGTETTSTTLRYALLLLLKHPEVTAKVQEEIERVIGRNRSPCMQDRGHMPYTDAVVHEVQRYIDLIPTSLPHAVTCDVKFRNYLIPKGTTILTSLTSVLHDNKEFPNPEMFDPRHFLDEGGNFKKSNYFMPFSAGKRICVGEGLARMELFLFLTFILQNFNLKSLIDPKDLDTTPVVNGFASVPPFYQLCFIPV
T2 sequence (P11712 whole entry): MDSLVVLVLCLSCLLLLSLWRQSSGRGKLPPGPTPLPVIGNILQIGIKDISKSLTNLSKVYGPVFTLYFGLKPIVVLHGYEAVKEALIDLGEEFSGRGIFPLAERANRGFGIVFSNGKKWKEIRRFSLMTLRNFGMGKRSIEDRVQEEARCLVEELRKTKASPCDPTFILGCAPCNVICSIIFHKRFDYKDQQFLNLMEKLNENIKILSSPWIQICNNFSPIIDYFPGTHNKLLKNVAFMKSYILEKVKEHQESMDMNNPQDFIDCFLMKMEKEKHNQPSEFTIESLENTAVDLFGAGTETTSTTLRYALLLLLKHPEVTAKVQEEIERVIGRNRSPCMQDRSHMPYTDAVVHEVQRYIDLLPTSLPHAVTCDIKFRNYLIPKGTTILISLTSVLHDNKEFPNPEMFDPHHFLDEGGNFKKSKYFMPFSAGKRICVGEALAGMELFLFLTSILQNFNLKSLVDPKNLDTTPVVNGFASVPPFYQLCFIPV

O=C(Nc1ccc(-c2noc(-c3ccccc3Cl)n2)c(Cl)c1)c1ccccn1 [Compound 52, N-(3-chloro-4-(5-(2-chlorophenyl)-1,2,4-oxadiazol-3-yl)phenyl)picolinamide]
IC50 (CYP2C19): 3.3 to 10 µM
IC50 (CYP2C9): 3.3 to 10 µM
maximum brain concentration ([1]; brain): 949.76 ng/mL
AUC ([1]; brain): 5.64 µM·h
Cmax ([1]; brain): 2120 nM
half-life ([1]; brain): 136 min
Tmax ([1]; brain, read-out: Tmax (converted)): 30 min
AUC ([1]; plasma): 0.37 µM·h
Cmax ([1]; plasma): 540 nM
half-life ([1]; plasma): 66 min
Tmax ([1]; plasma, read-out: Tmax (time at maximum observed concentration)): 15 min
maximum plasma concentration ([1]; plasma): 243.22 ng/mL
